Results taken from patent publication US9447055B1, “α-amino esters of hydroxypropylthiazolidine carboxamide derivative and salt form, crystal polymorph thereof” (Merck Serono S.A., priority 2016, dated 2016).
Values after ≈ are worked out from the molar mass of the structure shown. “Also recorded” adds a separate entry of the source.

Assays:
[1] = moisture sorption/desorption and relative humidity stability of salts; assay type: physicochemical; settings: for hygroscopicity: moisture balance data, hydrochloride
Method: Moisture sorption/desorption (MB) data were collected on a VTI SGA-100 Vapor Sorption Analyzer. Sorption and desorption data were collected over a range of 5% to 95% relative humidity (RH) at 10% RH intervals under a nitrogen purge. Samples were not dried prior to analysis. Equilibrium criteria used for analysis were less than 0.0100% weight change in 5 minutes, with a maximum equilibration time of 3 hours if the weight criterion was not met. Data were not corrected for the initial moisture content of the samples. NaCl and PVP were used as calibration standards.

[2] = aqueous solubility of compound I salts; assay type: physicochemical; settings: water
[3] = system: panel of 50 receptors, channels and enzymes binding sites; settings: 1 μM
[4] = target: prostaglandin E receptor 2 (EP2) (Homo sapiens (Human), UniProt P43116); settings: FP over EP2
Method: (§1) Selectivity of compound II was tested against all eight prostaglandin receptor subtypes.

[5] = system: other prostaglandin receptor subtypes; settings: FP over other subtypes
Method: as §1

[6] = solubility in water and simulated intestinal media; assay type: physicochemical
human FP = human FP (Homo sapiens (Human), UniProt P43088); assay: IP3 synthesis in FP-transfected HEK293-EBNA cells; assay type: cell-based
Method: The functional characterization of compound II on human FP was performed in transfected HEK293-EBNA cells.

Caco-2 cell monolayer = assay: bidirectional permeability across Caco-2 cell monolayers; assay type: in vitro ADME, human; settings: for efflux: bi-directional
Method: (§2) Compound I was dissolved in HBSS buffer (1% DMSO final concentration) at the concentrations of 1.5, 3 and 6 μM. Each concentration/sampling time was run in duplicate well. The test was performed in a gradient pH: the apical compartment (mucosal) was at pH 6.5, the basolateral compartment (serosal) was at pH 7.4.
(§3) Apical to basolateral (A→B, mucosal to serosal) transport: 200 μL of each concentration of compound I was added to the apical compartment and 400 μL of HBSS was added to the basolateral compartment. The plates were incubated at 37° C. An aliquot of the basolateral compartment was sampled after 60 and 120 min (t=60 and t=120). An aliquot of the apical compartment was sampled at the starting time (t=0) and after 120 min. (t=120).
(§4) Basolateral to apical (B→A, serosal to mucosal) transport: 400 μL of each concentration of compound I was added to the basolateral compartment and 200 μL of HBSS was added to the apical compartment. The plates were incubated at 37° C. An aliquot of the apical compartment was sampled after 60 and 120 min (t=60 and t=120). An aliquot of the basolateral compartment was sampled at the starting time (t=0) and after 120 min. (t=120). All samples were analyzed by LC/MS monitoring both compound I and the appearance of compound II.
as §2, with “II” for “I”
as §3, with “II” for “I”
as §4, with “of compound II was added” for “of compound I was added”, “LC/MS monitoring compound II.” for “LC/MS monitoring both compound I and the appearance of compound II.”

human FP-R = human FP-R (Homo sapiens (Human), UniProt P43088); assay: competitive radioligand binding, recombinant FP receptor expressed in HEK293-EBNA cells
Method: The potency of inhibition of compound I and compound II on prostaglandin F2α receptor was assessed by analyzing the affinity of these compounds for recombinant FP receptor expressed in HEK293-EBNA cells.

[7] = stability in HBSS transport buffer; assay type: in vitro ADME; settings: 37° C., 60 and 120 minutes
Method: Stability of both compound I and compound II was assessed during the test. These compounds were dissolved in HBSS buffer (1% DMSO final concentration) at the concentrations of 1.5, 3 and 6 μM. An aliquot of each solution was sampled at time zero (t=0) to assess the starting concentrations of the compounds. The solutions were incubated at 37° C. for the duration of the transport experiment. An aliquot of each solution was sampled at the end of experiment (t=120) to assess the final concentrations of compound I and compound II. Samples were analyzed by LC-MS.

[8] = system: spontaneous uterine contractions; assay: spontaneous uterine activity in late-term anaesthetized pregnant rat; assay type: in vivo; settings: late-term pregnant rats; for reduction of spontaneous uterine contractions: i.v. or oral, maximal effect at 30 mg/kg i.v. and 60 mg/kg oral; for intravenous activity compared with atosiban: i.v.
Source text: The tocolytic effects of compound I and compound II were investigated in a model of spontaneous uterine activity in late-term (19-21 days of gestation) anaesthetized pregnant rat (Kawarabayashi et al. Am. J. Obstet. Gynecol. 175:1348-1355 (1996) and Shinkai et al. J. Pharm. Pharmacol. 52:1417-1423 (2000)). Briefly, late-term pregnant female rats were anaesthetized with urethane. One pregnant uterine horn was exposed and a polyethylene catheter bearing on the tip a latex balloon filled with saline was inserted into the lumen. The catheter was connected to an amplifying/recording system via a pressure-transducer. […] For the i.v. administration the uterine contractile activity was quantified by calculating the AUC during the 10 min injection period. The percent variation of the AUC values relative to the spontaneous uterine response observed after each compound administration was calculated in comparison to the value recorded before the first dose-administration (basal value). The effect of compound I or compound II was evaluated by comparing pre- and post-treatment luminal uterine pressure values. For the oral administration the same computation procedure was applied at different time points after treatment. Statistical differences between treatment groups at each time-point were determined by using one-way ANOVA followed by Tukey test. Both compounds intravenously or orally administered were able to markedly reduce spontaneous uterine contractions by around 40-50% (maximal effect obtained at 30 mg/kg by i.v. route and 60 mg/kg by oral route).

[9] = in vivo conversion of compound I to compound II; settings: following gastrointestinal tract administration
Method: The invention is based on the discovery that compound I ((3S)-3-({[(2S)-3-(biphenyl-4-ylsulfonyl)-1,3-thiazolidin-2-yl]carbonyl}-amino)-3-(4-fluorophenyl)propyl L-valinate, represented by formula I, below) and salts thereof are converted in vivo to 3-([1,1′-biphenyl]-4-ylsulfonyl)-N-[1-(4-fluorophenyl)-3-hydroxypropyl]-1,3-thiazolidine-2-carboxamide (represented by formula II, below).
Compound II is a competitive and reversible prostaglandin F2α receptor antagonist (human FP2α receptor Ki=6 nM) that is under development for the management of pre-term labor by inhibition of premature uterine contractions.

PepT1 transporter = PepT1 transporter (Homo sapiens (Human), UniProt P46059); assay: mucosal-to-serosal Caco-2 transport after Gly-Sar pre-treatment; assay type: in vitro ADME; settings: 10 mM Gly-Sar pre-treatment; for compound I passage to receiving compartment after Gly-Sar pre-treatment: A→B
Method: The differentiated cells were pre-treated for 30 min. with 10 mM of Gly-Sar in order to block the active transporter PepT1.
as §2
Apical to basolateral (A→B, mucosal to serosal) transport: 200 μL of each concentration of compound I was added to the apical compartment and 400 μL of HBSS was added to the basolateral compartment. The plates were incubated at 37° C. An aliquot of the basolateral compartment was sampled after 60 and 120 min (t=60 and t=120). An aliquot of the apical compartment was sampled at the starting time (t=0) and after 120 min. (t=120). All samples were analyzed by LC/MS monitoring both compound I and the appearance of compound II.

[10] = non-specific binding to cell-free transwells; assay type: in vitro ADME
Method: Non-specific binding and recovery was assessed across cell-free transwells.
Compound I was tested at 1.5, 3 and 6 μM in duplicate cell-free transwells. The test was performed in a pH gradient between the apical and the basolateral compartment. […] The following sampling times were performed: 60 and 120 min for the basolateral compartment (receiver) and 120 min for the apical compartment (donor). Samples obtained were analyzed by LC-MS, both compound I and compound II were monitored in order to assess percent of recovery.

[11] = FaSSIF pH 6.5, read-out: Solubility in FaSSIF
[12] = FeSSIF pH 5.0, read-out: Solubility in FeSSIF
[13] = water, read-out: Solubility in water

Chain of human FP-R (P43088 whole entry): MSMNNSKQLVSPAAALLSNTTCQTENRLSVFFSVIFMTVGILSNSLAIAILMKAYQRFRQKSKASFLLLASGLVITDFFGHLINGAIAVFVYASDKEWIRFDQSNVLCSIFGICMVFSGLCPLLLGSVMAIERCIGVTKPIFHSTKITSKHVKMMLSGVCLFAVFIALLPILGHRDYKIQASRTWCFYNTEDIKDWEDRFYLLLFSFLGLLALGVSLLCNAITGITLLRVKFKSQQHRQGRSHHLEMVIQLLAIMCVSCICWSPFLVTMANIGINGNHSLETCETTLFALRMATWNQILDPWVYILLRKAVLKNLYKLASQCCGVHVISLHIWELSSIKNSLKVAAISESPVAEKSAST
Chain of human FP (P43088 whole entry): as above
Chain of prostaglandin E receptor 2 (EP2) (P43116 whole entry): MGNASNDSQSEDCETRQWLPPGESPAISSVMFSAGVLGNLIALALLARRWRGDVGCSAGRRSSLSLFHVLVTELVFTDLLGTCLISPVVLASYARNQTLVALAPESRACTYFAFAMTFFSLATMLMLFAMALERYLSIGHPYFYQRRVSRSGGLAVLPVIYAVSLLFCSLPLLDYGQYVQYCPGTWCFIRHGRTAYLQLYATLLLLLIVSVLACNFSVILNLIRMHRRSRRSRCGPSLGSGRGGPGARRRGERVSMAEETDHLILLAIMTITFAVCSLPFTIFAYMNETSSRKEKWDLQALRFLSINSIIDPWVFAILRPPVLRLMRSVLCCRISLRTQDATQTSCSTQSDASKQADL

In the case of `CC(C)[C@H](N)C(=O)OCC[C@H](NC(=O)[C@@H]1SCCN1S(=O)(=O)c1ccc(-c2ccccc2)cc1)c1ccc(F)cc1.Cl` [Compound III, (3S)-3-({[(2S)-3-(biphenyl-4-ylsulfonyl)-1,3-thiazolidin-2-yl]carbonyl}-amino)-3-(4-fluorophenyl)propyl L-valinate hydrochloride], the deliquescence ([1]; 2 days at approximately 95% RH) is reported as “did not deliquesce”, the “weight loss upon desorption” value ([1]; desorption after sorption to 95% RH) is reported as “approximately 0.7%” and the “weight gain on sorption” value ([1]; from 5 to 95% relative humidity) is reported as “Approximately 0.9%”. The hygroscopicity [1] was “low hygroscopicity”, the hygroscopicity ([1]; listed as chloride salt) was “non-hygroscopic” and the hygroscopicity ([1]; listed as hydrochloride salt) was “low hygroscopicity; also recorded: non-hygroscopic”. For the same compound, the solubility [2] was < 1000 µg/mL.
With `O=C(N[C@@H](CCO)c1ccc(F)cc1)[C@@H]1SCCN1S(=O)(=O)c1ccc(-c2ccccc2)cc1` (stereo in doubt) [Compound II, 3-([1,1′-biphenyl]-4-ylsulfonyl)-N-[1-(4-fluorophenyl)-3-hydroxypropyl]-1,3-thiazolidine-2-carboxamide] the “Selectivity in panel of 50 receptors, channels and enzymes binding sites” value [3] was “high selectivity for FP”, the “Selectivity versus prostaglandin E receptor 2 (EP2)” value [4] was “approximately 10 fold” and the “Selectivity against other prostaglandin receptors” value [5] was “higher than 100 fold”. It also gave a solubility [6, 11] of 0.4 µg/mL (≈ 0.799 µM), a solubility [6, 12] of 10 µg/mL (≈ 20 µM) and a solubility [6, 13] of 0.4 µg/mL (≈ 0.799 µM). The IC50 (human FP; FP/HEK293-EBNA cells, read-out: inhibition of synthesis of IP3, IC50) was 60 nM, the “agonist activity: synthesis of IP3 when added alone” value (human FP; tested up to 10 μM, added alone) was “did not induce any synthesis of IP3” and the “passive passage through the Caco-2 monolayer” value (Caco-2 cell monolayer) was “good passive passage”. For the same compound, the “passage apical to basolateral” value (Caco-2 cell monolayer; A→B) was “good percentage of passage”, the “permeability basolateral to apical” value (Caco-2 cell monolayer; B→A) was “low rate of permeability” and the efflux (Caco-2 cell monolayer) was “No efflux was detected”. The efflux (Caco-2 cell monolayer; listed as compound II) was “Evidence was not found that compound II might be a substrate for an efflux transporter”, the Ki (human FP-R) was 6 nM and the “stability in HBSS buffer” value [7] was “stable”. For the same compound, the “reduction of spontaneous uterine contractions” value [8] was 40-50% and the “intravenous activity compared with atosiban” value [8] was “comparable or slightly higher than that of the tocolytic drug atosiban”.
Compound `CC(C)[C@H](N)C(=O)OCC[C@H](NC(=O)[C@@H]1SCCN1S(=O)(=O)c1ccc(-c2ccccc2)cc1)c1ccc(F)cc1` [Compound I, (3S)-3-({[(2S)-3-(biphenyl-4-ylsulfonyl)-1,3-thiazolidin-2-yl]carbonyl}-amino)-3-(4-fluorophenyl)propyl L-valinate] has a solubility [6, 11] of 70 µg/mL (≈ 117 µM), a solubility [6, 12] of 90 µg/mL (≈ 150 µM) and a solubility [6, 13] of 380 µg/mL (≈ 634 µM). The “conversion to compound II” value [9] was “rapidly converted to compound II”, the “PepT1 mediation of transport” value (PepT1 transporter) was “likely not mediated by PepT1” and the “compound I passage to receiving compartment after Gly-Sar pre-treatment” value (PepT1 transporter) was “not detected”. The “compound I passage to receiving compartment after Gly-Sar pre-treatment” value (PepT1 transporter; listed as compound I) was “no passage”, the non-specific binding ([10]; cell-free transwells, 1.5, 3 and 6 μM) was “excluded” and the “detection in basolateral compartment of cell-free transwell” value ([10]; cell-free transwells, any dose tested) was “not detected”. For the same compound, the “compound I in basolateral (receiving) compartment, apical to basolateral” value (Caco-2 cell monolayer; A→B, 60 and 120 minutes, 1.5, 3 and 6 μM) was “not detected”, the “compound I in apical (receiving) compartment, basolateral to apical” value (Caco-2 cell monolayer; B→A, 60 and 120 minutes) was “not detected” and the “recovery of compound I in apical compartment at end of apical to basolateral experiment” value (Caco-2 cell monolayer; apical compartment, 120 min) was “primarily recovered in the form of the de-esterified variant, compound II; also recorded: low recovery”. The “passage through the Caco-2 cell monolayer” value (Caco-2 cell monolayer; bi-directional permeability test) was “did not pass through the cell monolayer”, the Ki (human FP-R) was 1 nM and the “stability in HBSS buffer” value [7] was “stable”. For the same compound, the “reduction of spontaneous uterine contractions” value [8] was 40-50% and the “intravenous activity compared with atosiban” value [8] was “comparable or slightly higher than that of the tocolytic drug atosiban”.
